Where two headings read alike, the source gives them in different places.
Assays:
[1] = system: Drosophila imaginal leg discs; test: Imaginal disc eversion assay; format: cell-based, Drosophila melanogaster; conditions: Drosophila melanogaster, 15 hr incubation in Robb's medium
Description: DihydroMotuporamine C, 4a, was used to develop an imaginal disc assay in Drosophila flies. The imaginal leg discs were collected by microscopic dissection from maggots. […] Inhibition was measured as failure of the disc to fully develop into a fly leg after 15 hr of incubation in Robb's growth medium. This presumably occurs by overactivation of Rho, an important signaling pathway in development. Hyper-stimulation of this pathway is sufficient to block development of the fly leg.
Fly Stocks: 20 female and 5 male wild type Oregon variant of Drosophila melanogaster interbred in blue food medium for 24 hours then flies are removed. Third instar wall-crawling larvae collected then dissected on the sixth day. Flies kept in 25° C. incubation chamber.
Blue Food Preparation: Standard corn meal medium heated then mixed completely with aqueous 1% Bromophenol Blue. The food medium is cooled for one day or more before use.
Dissection Medium: Ringer's Buffer with 10 uL 0.1% BSA. Ringer's Medium consists of 130 mM NaCl, 5 mM KCl, 1.5 mM CaCl2-2H2O, Stored at room temperature (23° C.), BSA added before dissection.
Cultivation Medium: Minimal Robb's Medium with 10 uL 0.1% BSA. Minimal Robb's Medium consists of 40 mM KCl, 0.4 mM KH2PO4, 40 mM NaCl, 0.4 mM NaH2PO4.7H2O, 1.2 mM MgSO4.7H2O, 1.2 mM MgCl2-6H2O, 1 mM CaCl2-2H2O, 10 mM Glucose, 0.2 mM L-asparagine, 4.0 mM L-glutamine, 0.16 mM Glycine, 0.64 mM L-leucine, 0.32 mM L-proline, 0.16 mM R-Serine, 0.64 mM L-valine. Stored at −25° C. One day before dissection, aliquot defrosted in 4° C. Add BSA then warmed to room temperature (23° C.) before dissection.
0.1% BSA: 0.1 g BSA fraction V (Sigma#A-9647) in 10 mL distilled H2O, Stored at 4° C.
Developmental Hormone: 1 mg 20-hydroxyecdysone (Sigma #H-5142) in 1 mL 100% Ethanol. Stored at −25° C. Before use, stock is diluted 10× (1 mL added to 9 mL of 100% Ethanol). 10 μL of diluted 20-hydroxyecdysone is added to culture.
Dissection Procedures: Third instar larvae are removed from cultivation bottle with a wetted brush and washed in dH2O to remove food medium clinging to larvae. The cleaned larvae are dissected in Ringer's Medium using forceps. The imaginal discs are washed in fresh Ringer's Medium, and then cultivated with 1 mL of Robb's Medium in 12-well culture plate. Each culture well should have 30˜40 imaginal discs.
Culturing Procedures: In a larger container, place the 12-well culture plate on a moist towel, then seal the large container. Cultivate at 25° C. for 15 hours. Evaluation: Three categories will be used to grade the eversion of each imaginal disc. Full Eversion—the leg is fully extended from the disc. Partial Eversion—the leg is protruding from the epithelial. No Eversion—no sign of any protrusion.

CHO-MG cells = test: Cytotoxicity in PAT-deficient CHO-MG cells; format: cell-based, Chinese hamster; conditions: Cricetulus griseus, CHO-MG
From the text: In terms of Table 1, L1210 cells are mouse leukemia cells and are the gold standard in terms of evaluating polyamine cytotoxicity data due to a plethora of prior data in this cell line for other polyamine structures. Clearly 7a was similar in all respects to 4a (Table 1). […] The lower the Ki value, the higher the affinity of the drug for the polyamine transporter (PAT) on the cell surface. Chinese hamster ovary (CHO) cells and a mutant line without an active PAT (CHO-MG) also evaluated the PAT selectivity of these drugs.
CHO and CHO-MG studies. Chinese hamster ovary (CHO) cells were chosen along with a mutant cell line (CHO-MG) in order to comment on how the synthetic conjugates gain access to cells. The CHO-MG cell line is polyamine-transport deficient and was isolated after selection for growth resistance to methylglyoxalbis(guanylhydrazone), MGBG, (CH3C[═N—NHC(═NH)NH2]CH[═N—NHC(═NH)NH2]) using a single-step selection after mutagenesis with ethylmethanesulfonate (Mandel et al., J. Cell. Physiol., 1978, 97, 335-344; Byers et al., Biochem. J. 1989, 263, 745-752).
For the purposes of this study, the CHO-MG cell line represents cells with no PAT activity and provided a model for alternative modes of entry or action, which are independent of PAT. These alternative modes of entry include passive diffusion or utilization of another transporter. The alternative modes of action may also include interactions on the outer surface of the plasma membrane or other membrane receptor interactions.
Biological studies. Murine leukemia cells (L1210), CHO and CHO-MG cells were grown in RPMI medium supplemented with 10% fetal calf serum, glutamine (2 mM), penicillin (100 U/mL), streptomycin (50 μg/mL). L-Proline (2 μg/mL) was added to the culture medium for CHO-MG cells. Cells were grown at 37° C. under a humidified 5% CO2 atmosphere. […] Trypan blue staining was used to determine cell viability before the initiation of a cytotoxicity experiment. Cells in early to mid log-phase were used. IC50 determinations. Cell growth was assayed in sterile 96-well microtiter plates (Becton-Dickinson, Oxnard, Calif., USA). L1210 cells were seeded at 5e^4 cells/mL of medium (100 μL/well). CHO and CHO-MG cells were plated at 2e^3 cells/mL. Drug solutions (10 μL per well) of appropriate concentration were added at the time of seeding for L1210 cells and after an overnight incubation for the CHO cell lines. After exposure to the drug for 48 hr, cell growth was determined by measuring formazan formation from 3-(4,5-dimethylthiazol-2-yl)2,5-diphenyltetrazolium using a Titertek Multiskan MCC/340 microplate reader for absorbance (540 nm) measurements (Mosmann, T., J. Immunol. Methods 1983, 65, 55-63).

[2] = target: polyamine transporter (PAT); conditions: data originally reported in Ref; read-out: L1210 Ki value; cited from earlier work
CHO cells = conditions: data originally reported in Ref; cited from earlier work

Row | SMILES | inhibition at 18 µM [1] | IC50 (CHO-MG cells; 48 h incubation, new data, read-out: CHO-MG IC50) | IC50 (CHO-MG cells; absence of AG, 48 h, read-out: CHO-MG IC50 w/o AG) | IC50 (CHO-MG cells; in the presence of AG, 48 h at 37° C., read-out: CHO-MG IC50) | Ki [2] | IC50 Ratio (CHO-MG/CHO), a measure of PAT selectivity (CHO cells)
1 | CCN(CCCNCCCN)Cc1c2ccccc2cc2ccccc12 [Compound 7a, N-(3-Amino-propyl)-N′-anthracen-9-ylmethyl-N′-ethyl-propane-1,3-diamine] | 95% | 4 µM |  |  |  | 
2 | NCCCCNCCCCNCc1c2ccccc2cc2ccccc12 [Compound 6b] | 97% |  | 7.05 µM | 66.7 µM | 1.8 µM | 148

Source: patent US20090069441A1, “Motuporamine Mimic Agents” (priority 2006, published 2009)
